According to US12643871B2, “Aryl formamide compound containing chiral sulfur oxide or salt thereof, preparation method, herbicidal composition and use thereof” (Qingdao Kingagroot Chemical Compound Co., Ltd., priority 2019, dated 2026):

Key:
Assay in all cases: Weeding effect in post-emergence stage
Format in all cases: in vivo
Details in all cases: 250 g/ha; 2 leaf stage; 15 days after application; fresh weight control rate
[1] = tested on: Digitaria sanguinalis
In short: (§1)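 Post-emergence spray, 2-leaf stage; doses 500–15 g/ha; acetone + Tween 80 + methyl oleate EC (1.5 L/ha) as synergist. Greenhouse 15 d. Readout: fresh weight control rate graded levels 0–5 (5 = above 85%, 0 = below 5%); triplicate means.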

[2] = tested on: Setaria viridis
In short: as §1

[3] = tested on: Abutilon theophrasti
In short: as §1

[4] = tested on: Echinochloa crusgali
In short: as §1

[5] = tested on: Amaranthus retroflexus
In short: as §1

With `Cc1nnc(NC(=O)c2ccc(C(F)(F)F)c([S+]([O-])C(F)(F)C(F)(F)C(F)(F)F)c2F)o1` (stereo not drawn) [Compound 33] the “weeding effect in post-emergence stage, activity level (growth control rate), Digitaria sanguinalis” value (“weeding effect … Digitaria sanguinalis” below) [1] was 5 (Level 5: growth control rate is above 85%), the “weeding effect in post-emergence stage, activity level (growth control rate), Setaria viridis” value (from here on “weeding effect … Setaria viridis”) [2] was 5 (Level 5: growth control rate is above 85%) and the “weeding effect in post-emergence stage, activity level (growth control rate), Abutilon theophrasti” value (“weeding effect … Abutilon theophrasti” for short) [3] was 5 (Level 5: growth control rate is above 85%). The “weeding effect in post-emergence stage, activity level (growth control rate), Echinochloa crusgali” value (from here on “weeding effect … Echinochloa crusgali”) [4] was 5 (Level 5: growth control rate is above 85%) and the “weeding effect in post-emergence stage, activity level (growth control rate), Amaranthus retroflexus” value (from here on “weeding effect … Amaranthus retroflexus”) [5] was 5 (Level 5: growth control rate is above 85%).
For `Cc1nnc(NC(=O)c2ccc(C(F)(F)F)c([S@+]([O-])CCCC(F)(F)F)c2F)o1` [Compound 34], the “weeding effect … Digitaria sanguinalis” value [1] was 5 (Level 5: growth control rate is above 85%), the “weeding effect … Setaria viridis” value [2] was 5 (Level 5: growth control rate is above 85%) and the “weeding effect … Abutilon theophrasti” value [3] was 5 (Level 5: growth control rate is above 85%). The “weeding effect … Echinochloa crusgali” value [4] was 5 (Level 5: growth control rate is above 85%) and the “weeding effect … Amaranthus retroflexus” value [5] was 5 (Level 5: growth control rate is above 85%).
`Cc1nnc(NC(=O)c2ccc(C(F)(F)F)c([S@+]([O-])CCC(F)(F)C(F)(F)F)c2F)o1` [Compound 35] was tested, and the “weeding effect … Digitaria sanguinalis” value [1] was 5 (Level 5: growth control rate is above 85%), the “weeding effect … Setaria viridis” value [2] was 5 (Level 5: growth control rate is above 85%) and the “weeding effect … Abutilon theophrasti” value [3] was 5 (Level 5: growth control rate is above 85%). The “weeding effect … Echinochloa crusgali” value [4] was 5 (Level 5: growth control rate is above 85%) and the “weeding effect … Amaranthus retroflexus” value [5] was 5 (Level 5: growth control rate is above 85%).
For `Cc1nnc(NC(=O)c2ccc(C(F)(F)F)c([S@+]([O-])CCC(F)(C(F)(F)F)C(F)(F)F)c2F)o1` [Compound 36], the “weeding effect … Digitaria sanguinalis” value [1] was 5 (Level 5: growth control rate is above 85%), the “weeding effect … Setaria viridis” value [2] was 5 (Level 5: growth control rate is above 85%) and the “weeding effect … Abutilon theophrasti” value [3] was 5 (Level 5: growth control rate is above 85%). For the same compound, the “weeding effect … Echinochloa crusgali” value [4] was 5 (Level 5: growth control rate is above 85%) and the “weeding effect … Amaranthus retroflexus” value [5] was 5 (Level 5: growth control rate is above 85%).
For `Cc1nnc(NC(=O)c2ccc(C(F)(F)F)c([S@+]([O-])CC(C)Cl)c2F)o1` (stereo partly drawn) [Compound 38], the “weeding effect … Digitaria sanguinalis” value [1] was 5 (Level 5: growth control rate is above 85%), the “weeding effect … Setaria viridis” value [2] was 5 (Level 5: growth control rate is above 85%) and the “weeding effect … Abutilon theophrasti” value [3] was 5 (Level 5: growth control rate is above 85%). The “weeding effect … Echinochloa crusgali” value [4] was 5 (Level 5: growth control rate is above 85%) and the “weeding effect … Amaranthus retroflexus” value [5] was 5 (Level 5: growth control rate is above 85%).
For `Cc1nnc(NC(=O)c2ccc(C(F)(F)F)c([S@+]([O-])CCCC#N)c2F)o1` [Compound 53], the “weeding effect … Digitaria sanguinalis” value [1] was 5 (Level 5: growth control rate is above 85%), the “weeding effect … Setaria viridis” value [2] was 5 (Level 5: growth control rate is above 85%) and the “weeding effect … Abutilon theophrasti” value [3] was 5 (Level 5: growth control rate is above 85%). The “weeding effect … Echinochloa crusgali” value [4] was 5 (Level 5: growth control rate is above 85%) and the “weeding effect … Amaranthus retroflexus” value [5] was 5 (Level 5: growth control rate is above 85%).
